{"source": "patent US20100190794A1", "about": "“Herbicidally Active Composition” (BASF SE, priority 2007, published 2010)", "key": {"SETVI": {"test_system": "SETVI", "experiment": "greenhouse test, post-emergence treatment", "format": "in vivo, Setaria viridis", "details": "125 g/ha a.s., Use Example 18", "procedure": "(§1) The culture containers used were plastic pots containing loamy sand with approximately 3.0% of humus as substrate. The seeds of the test plants were sown separately for each species.\n(§2) For the post-emergence treatment, the test plants were grown to a plant height of from 3 to 15 cm, depending on the plant habit, and only then treated with the active compounds which had been suspended or emulsified in water. To this end, the test plants were either sown directly and grown in the same containers, or they were first grown separately as seedlings and transplanted into the test containers a few days prior to treatment.\n(§3) Depending on the species, the plants were kept at 10-25° C. and 20-35° C., respectively. The test period extended over 2 to 4 weeks. During this time, the plants were tended and their response to the individual treatments was evaluated.\n(§4) Evaluation was carried out using a scale from 0 to 100. 100 means no emergence of the plants, or complete destruction of at least the above-ground parts, and 0 means no damage or normal course of growth. Good herbicidal activity is given at values of at least 70, and very good herbicidal activity is given at values of at least 85.\n(§5) The respective stated components A and B, and if appropriate, C were formulated as a 5% by weight or 10% by weight strength emulsion concentrate or a commercially available formulation of component B was used and, with addition of the amount of solvent system, introduced into the spray liquor used for applying the active compound. In the examples, the solvent used was water.\n(§6) The test period extended over 20 or 21 days. During this time, the plants were tended, and their reactions to the treatment with active compound was monitored.\n(§7) What was evaluated was the damage by the chemical compositions using a scale of from 0 to 100%, in comparison to the untreated control plants. 0 means no damage, and 100 means complete destruction of the plants.\n(§8) In the examples below, using the method of S. R. Colby (1967) “Calculating synergistic and antagonistic responses of herbicide combinations”, Weeds 15, p. 22 ff., the value E, which is expected if the activity of the individual active compounds is only additive, was calculated.\n(§9) where X=percent activity using active compound A at an application rate a; Y=percent activity using active compound B at an application rate b; E=expected activity (in %) by A+B at application rates a+b.\n(§10) If the value found in experiments is higher than the value E calculated according to Colby, a synergistic effect is present."}, "LOLMU": {"test_system": "LOLMU", "experiment": "greenhouse test, pre-emergence treatment", "format": "in vivo, Lolium multiflorum", "text": "as §1\n(§11) For the pre-emergence treatment, the active compounds, suspended or emulsified in water, were applied directly after sowing by means of finely distributing nozzles. The containers were irrigated gently to promote germination and growth and subsequently covered with transparent plastic hoods until the plants had rooted. This cover caused uniform germination of the test plants unless this was adversely affected by the active compounds.\nas §3, §4, §5, §6, §7, §8, §9, §10"}, "ALOMY": {"test_system": "ALOMY", "experiment": "greenhouse test, pre-emergence treatment", "format": "in vivo, Alopecurus myosuroides", "text": "as §1, §11, §3, §4, §5, §6, §7, §8, §9, §10"}, "APESV": {"test_system": "APESV", "experiment": "greenhouse test, pre-emergence treatment", "format": "in vivo, Apera spica-venti", "details": "32 g/ha a.s., Use Example 21", "text": "as §1, §11, §3, §4, §5, §6, §7, §8, §9, §10"}, "LAMPU": {"test_system": "LAMPU", "experiment": "greenhouse test, pre-emergence treatment", "format": "in vivo, Lamium purpureum", "details": "32 g/ha a.s., Use Example 21", "text": "as §1, §11, §3, §4, §5, §6, §7, §8, §9, §10"}, "DIGSA": {"test_system": "DIGSA", "experiment": "greenhouse test, post-emergence treatment", "format": "in vivo, Digitaria sanguinalis", "details": "125 g/ha a.s., Use Example 18", "procedure": "as §1, §2, §3\nas §4, with “85. […]” for “85.”\nas §6\n(§12) What was evaluated was the damage by the chemical compositions using a scale of from 0 to 100%, in comparison to the untreated control plants. […]\n(§13) In the examples below, using the method of S. R. Colby (1967) “Calculating synergistic and antagonistic responses of herbicide combinations”, Weeds 15, p. 22 ff., the value E, which is expected if the activity of the individual active compounds is only additive, was calculated. […]\nas §10"}, "STEME": {"test_system": "STEME", "experiment": "greenhouse test, pre-emergence treatment", "format": "in vivo, Stellaria media", "details": "1000 g/ha a.s., Use Example 2", "text": "as §1, §11, §3, §4, §5, §6, §7, §8, §9, §10"}, "MATIN": {"test_system": "MATIN", "experiment": "greenhouse test, pre-emergence treatment", "format": "in vivo, Matricaria inodora", "details": "1000 g/ha a.s., Use Example 2", "text": "as §1, §11, §3, §4, §5, §6, §7, §8, §9, §10"}, "ECHCG": {"test_system": "ECHCG", "experiment": "greenhouse test, pre-emergence treatment", "format": "in vivo, Echinochloa crus-galli", "details": "1000 g/ha a.s., Use Example 2", "text": "as §1, §11, §3, §4, §5, §6, §7, §8, §9, §10"}, "POAAN": {"test_system": "POAAN", "experiment": "greenhouse test, pre-emergence treatment", "format": "in vivo, Poa annua", "details": "6.25 g/ha a.s., Use Example 6", "text": "as §1, §11, §3, §4, §5, §6, §7, §8, §9, §10"}, "AVEFA": {"test_system": "AVEFA", "experiment": "greenhouse test, pre-emergence treatment", "format": "in vivo, Avena fatua", "details": "6.25 g/ha a.s., Use Example 6", "text": "as §1, §11, §3\nas §4, with “85. […]” for “85.”\nas §6, §12, §13, §10"}, "CCHEC": {"test_system": "CCHEC", "experiment": "greenhouse test, pre-emergence treatment", "format": "in vivo, Cenchrus echinatus", "details": "Use Example 3", "text": "as §1, §11, §3, §4, §5, §6, §7, §8, §9, §10"}, "PANDI": {"test_system": "PANDI", "experiment": "greenhouse test, pre-emergence treatment", "format": "in vivo, Panicum dichotomiflorum", "details": "Use Example 3", "text": "as §1, §11, §3\nas §4, with “85. […]” for “85.”\nas §6, §12, §13, §10"}}}
{"smiles": "CC(C)N(C(=O)COc1nnc(C(F)(F)F)s1)c1ccc(F)cc1", "note": "[Flufenacet, reference compound]", "values": [{"measurement": "Herbicidal action in % after 20 days against SETVI", "setting": "SETVI", "result": 70, "unit": "%"}, {"measurement": "Herbicidal action in % after 20 days against LOLMU", "setting": "LOLMU; 32 g/ha a.s., Use Example 21", "result": 65, "unit": "%"}, {"measurement": "Herbicidal action in % after 20 days against LOLMU", "setting": "LOLMU; 62.5 g/ha a.s., Use Example 13", "result": 40, "unit": "%"}, {"measurement": "Herbicidal action in % after 20 days against LOLMU", "setting": "LOLMU; 125 g/ha a.s., Use Example 13", "result": 70, "unit": "%"}, {"measurement": "Herbicidal action in % after 20 days against ALOMY", "setting": "ALOMY; 32 g/ha a.s., Use Example 21", "result": 70, "unit": "%"}, {"measurement": "Herbicidal action in % after 20 days against ALOMY", "setting": "ALOMY; 62.5 g/ha a.s., Use Example 13", "result": 75, "unit": "%"}, {"measurement": "Herbicidal action in % after 20 days against ALOMY", "setting": "ALOMY; 125 g/ha a.s., Use Example 13", "result": 90, "unit": "%"}, {"measurement": "Herbicidal action in % after 20 days against APESV", "setting": "APESV", "result": 95, "unit": "%"}, {"measurement": "Herbicidal action in % after 20 days against LAMPU", "setting": "LAMPU", "result": 20, "unit": "%"}, {"measurement": "Herbicidal action in % after 20 days against DIGSA", "setting": "DIGSA", "result": 75, "unit": "%"}]}
{"smiles": "CCCN(CCC)C(=O)SCc1ccccc1", "note": "[Prosulfocarb, reference compound]", "values": [{"measurement": "Herbicidal action in % after 20 days against STEME", "setting": "STEME", "result": 80, "unit": "%"}, {"measurement": "Herbicidal action in % after 20 days against ALOMY", "setting": "ALOMY; 1000 g/ha a.s., Use Example 2", "result": 70, "unit": "%"}, {"measurement": "Herbicidal action in % after 20 days against MATIN", "setting": "MATIN", "result": 30, "unit": "%"}, {"measurement": "Herbicidal action in % after 20 days against ECHCG", "setting": "ECHCG", "result": 40, "unit": "%"}]}
{"smiles": "CC(C)N(C)S(=O)(=O)NC(=O)c1cc(-n2c(=O)cc(C(F)(F)F)n(C)c2=O)c(F)cc1Cl", "note": "[2-chloro-5-[3,6-dihydro-3-methyl-2,6-dioxo-4-(trifluoromethyl)-1(2H)-pyrimidinyl]-4-fluoro-N-[(isopropyl)methylsulfamoyl]benzamide, reference compound]", "values": [{"measurement": "Herbicidal action in % after 20 days against POAAN", "setting": "POAAN", "result": 0, "unit": "%"}, {"measurement": "Herbicidal action in % after 20 days against AVEFA", "setting": "AVEFA", "result": 0, "unit": "%"}]}
{"smiles": "CCc1cnc(C2=NC(C)(C(C)C)C(=O)N2)c(C(=O)O)c1", "note": "(centres unmarked) [Imazethapyr]", "values": [{"measurement": "Herbicidal action in % after 21 days against CCHEC", "setting": "CCHEC; 17.5 g/ha a.s.", "result": 50, "unit": "%"}, {"measurement": "Herbicidal action in % after 21 days against CCHEC", "setting": "CCHEC; 35 g/ha a.s.", "result": 60, "unit": "%"}, {"measurement": "Herbicidal action in % after 21 days against PANDI", "setting": "PANDI; 17.5 g/ha a.s.", "result": 95, "unit": "%"}, {"measurement": "Herbicidal action in % after 21 days against PANDI", "setting": "PANDI; 35 g/ha a.s.", "result": 95, "unit": "%"}]}
